Source: patent US12077503B2, “Substituted cyclic amides and their use as herbicides” (FMC CORPORATION, priority 2015, dated 2024)

Assays:
Type in all cases: in vivo
[1] = system: corn (Zea mays); assay: Test G Post-Emergence Protocol; conditions: Zea mays, post-emergence, 312 h; for plant injury at 15.625 g/ha: 15.625 g ai/ha, evaluated after 13 days (100=total damage to plant; 0=no damage to plant), read-out: Corn damage rating; for plant injury at 62.5 g/ha: 62.5 g ai/ha, read-out: Corn damage rating (100=total damage to plant; 0=no damage to plant); for plant injury at 62.5 g/ha / plant injury at 250 g/ha: evaluated after 13 days; for plant injury at 250 g/ha: 250 g ai/ha, read-out: damage to plant, Corn (100=total damage to plant; 0=no damage to plant)
Outline: (§1)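 Foliar application was made 8 days after sowing, using an aqueous spray of the active in acetone/water (50:50) with 0.5% Tween 20, at doses of 15.625, 62.5 or 250 g/ha. Injury was assessed 13 days later, where 100 meant the plant was fully damaged.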

[2] = system: ivy-leaved morning glory (Ipomoea hederacea); assay: Test G Post-Emergence Protocol; conditions: Ipomoea, post-emergence, 312 h; for pest or weed control at 15.625 g/ha: 15.625 g ai/ha, evaluated after 13 days (100=total damage to plant; 0=no damage to plant), read-out: Morningglory, Ivy-leaved damage rating; for pest or weed control at 62.5 g/ha: 62.5 g ai/ha, read-out: Morningglory, Ivy-leaved damage rating (100=total damage to plant; 0=no damage to plant); for pest or weed control at 62.5 g/ha / pest or weed control at 250 g/ha: evaluated after 13 days; for pest or weed control at 250 g/ha: 250 g ai/ha, read-out: damage to plant, Morningglory, Ivy-leaved (100=total damage to plant; 0=no damage to plant)
Outline: as §1

[3] = system: redroot pigweed (Amaranthus retroflexus); assay: Test G Post-Emergence Protocol; conditions: Amaranthus retroflexus, post-emergence, 312 h; for pest or weed control at 15.625 g/ha: 15.625 g ai/ha, evaluated after 13 days (100=total damage to plant; 0=no damage to plant), read-out: Pigweed, Redroot damage rating; for pest or weed control at 62.5 g/ha: 62.5 g ai/ha, read-out: Pigweed, Redroot damage rating (100=total damage to plant; 0=no damage to plant); for pest or weed control at 62.5 g/ha / pest or weed control at 250 g/ha: evaluated after 13 days; for pest or weed control at 250 g/ha: 250 g ai/ha, read-out: damage to plant, Pigweed, Redroot (100=total damage to plant; 0=no damage to plant)
Outline: as §1

[4] = system: velvetleaf (Abutilon theophrasti); assay: Test G Post-Emergence Protocol; conditions: Abutilon theophrasti, post-emergence, 312 h; for pest or weed control at 15.625 g/ha: 15.625 g ai/ha, evaluated after 13 days (100=total damage to plant; 0=no damage to plant), read-out: Velvetleaf damage rating; for pest or weed control at 62.5 g/ha: 62.5 g ai/ha, read-out: Velvetleaf damage rating (100=total damage to plant; 0=no damage to plant); for pest or weed control at 62.5 g/ha / pest or weed control at 250 g/ha: evaluated after 13 days; for pest or weed control at 250 g/ha: 250 g ai/ha, read-out: damage to plant, Velvetleaf (100=total damage to plant; 0=no damage to plant)
Outline: as §1

[5] = system: giant foxtail (Setaria faberi); assay: Test G Post-Emergence Protocol; conditions: Setaria faberi, post-emergence, 312 h; for pest or weed control at 15.625 g/ha: 15.625 g ai/ha, evaluated after 13 days (100=total damage to plant; 0=no damage to plant), read-out: Foxtail, Giant damage rating; for pest or weed control at 62.5 g/ha: 62.5 g ai/ha, read-out: Foxtail, Giant damage rating (100=total damage to plant; 0=no damage to plant); for pest or weed control at 62.5 g/ha / pest or weed control at 250 g/ha: evaluated after 13 days; for pest or weed control at 250 g/ha: 250 g ai/ha, read-out: damage to plant, Foxtail, Giant (100=total damage to plant; 0=no damage to plant)
Outline: as §1

[6] = system: barnyardgrass (Echinochloa crus-galli); assay: Test G Post-Emergence Protocol; conditions: Echinochloa crus-galli, post-emergence, 312 h; for pest or weed control at 15.625 g/ha: 15.625 g ai/ha, evaluated after 13 days (100=total damage to plant; 0=no damage to plant), read-out: Barnyardgrass damage rating; for pest or weed control at 62.5 g/ha: 62.5 g ai/ha, read-out: Barnyardgrass damage rating (100=total damage to plant; 0=no damage to plant); for pest or weed control at 62.5 g/ha / pest or weed control at 250 g/ha: evaluated after 13 days; for pest or weed control at 250 g/ha: 250 g ai/ha, read-out: damage to plant, Barnyardgrass (100=total damage to plant; 0=no damage to plant)
Outline: as §1

[7] = system: corn (Zea mays); assay: Test G Pre-Emergence Protocol; conditions: Zea mays, pre-emergence, 312 h, evaluated after 13 days; for plant injury at 15.625 g/ha: 15.625 g ai/ha; for plant injury at 15.625 g/ha / plant injury at 250 g/ha: read-out: Corn damage rating (100=total damage to plant; 0=no damage to plant); for plant injury at 62.5 g/ha: 62.5 g ai/ha, 100=total damage to plant, 0=no damage to plant, read-out: plant damage rating, Corn; for plant injury at 250 g/ha: 250 g ai/ha
Outline: (§2)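 Herbicidal effect was rated 13 days post-application on a scale where 100 equals total damage. Spraying took place the day after sowing, using 15.625, 62.5 or 250 g/ha of compound in a 50:50 acetone/water solution with 0.5% Tween 20.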

[8] = system: ivy-leaved morning glory (Ipomoea hederacea); assay: Test G Pre-Emergence Protocol; conditions: Ipomoea, pre-emergence, 312 h, evaluated after 13 days; for pest or weed control at 15.625 g/ha: 15.625 g ai/ha, read-out: Morning-glory, Ivy-leaved damage rating (100=total damage to plant; 0=no damage to plant); for pest or weed control at 62.5 g/ha: 62.5 g ai/ha, 100=total damage to plant, 0=no damage to plant, read-out: plant damage rating, Morningglory, Ivy-leaved; for pest or weed control at 250 g/ha: 250 g ai/ha, read-out: Morningglory, Ivy-leaved damage rating (100=total damage to plant; 0=no damage to plant)
Outline: as §2

[9] = system: redroot pigweed (Amaranthus retroflexus); assay: Test G Pre-Emergence Protocol; conditions: Amaranthus retroflexus, pre-emergence, 312 h, evaluated after 13 days; for pest or weed control at 15.625 g/ha: 15.625 g ai/ha; for pest or weed control at 15.625 g/ha / pest or weed control at 250 g/ha: read-out: Pigweed, Redroot damage rating (100=total damage to plant; 0=no damage to plant); for pest or weed control at 62.5 g/ha: 62.5 g ai/ha, 100=total damage to plant, 0=no damage to plant, read-out: plant damage rating, Pigweed, Redroot; for pest or weed control at 250 g/ha: 250 g ai/ha
Outline: as §2

[10] = system: velvetleaf (Abutilon theophrasti); assay: Test G Pre-Emergence Protocol; conditions: Abutilon theophrasti, pre-emergence, 312 h, evaluated after 13 days; for pest or weed control at 15.625 g/ha: 15.625 g ai/ha; for pest or weed control at 15.625 g/ha / pest or weed control at 250 g/ha: read-out: Velvetleaf damage rating (100=total damage to plant; 0=no damage to plant); for pest or weed control at 62.5 g/ha: 62.5 g ai/ha, 100=total damage to plant, 0=no damage to plant, read-out: plant damage rating, Velvetleaf; for pest or weed control at 250 g/ha: 250 g ai/ha
Outline: as §2

[11] = system: giant foxtail (Setaria faberi); assay: Test G Pre-Emergence Protocol; conditions: Setaria faberi, pre-emergence, 312 h, evaluated after 13 days; for pest or weed control at 15.625 g/ha: 15.625 g ai/ha; for pest or weed control at 15.625 g/ha / pest or weed control at 250 g/ha: read-out: Foxtail, Giant damage rating (100=total damage to plant; 0=no damage to plant); for pest or weed control at 62.5 g/ha: 62.5 g ai/ha, 100=total damage to plant, 0=no damage to plant, read-out: plant damage rating, Foxtail, Giant; for pest or weed control at 250 g/ha: 250 g ai/ha
Outline: as §2

[12] = system: barnyardgrass (Echinochloa crus-galli); assay: Test G Pre-Emergence Protocol; conditions: Echinochloa crus-galli, pre-emergence, 312 h, evaluated after 13 days; for pest or weed control at 15.625 g/ha: 15.625 g ai/ha, read-out: Barnyard grass damage rating (100=total damage to plant; 0=no damage to plant); for pest or weed control at 62.5 g/ha: 62.5 g ai/ha, 100=total damage to plant, 0=no damage to plant, read-out: plant damage rating, Barnyardgrass; for pest or weed control at 250 g/ha: 250 g ai/ha, read-out: Barnyardgrass damage rating (100=total damage to plant; 0=no damage to plant)
Outline: as §2

With CC(C)c1cc(NC(=O)[C@@H]2C(=O)N(C)C[C@H]2c2ccc(C(F)(F)F)cc2)[nH]n1 (racemic) [Compound 1522] the plant injury at 15.625 g/ha [1] was 0%, the plant injury at 62.5 g/ha [1] was 10% and the plant injury at 250 g/ha [1] was 10%. The pest or weed control at 15.625 g/ha [2] was 0%, the pest or weed control at 62.5 g/ha [2] was 0% and the pest or weed control at 250 g/ha [2] was 0%. The pest or weed control at 15.625 g/ha [3] was 0%, the pest or weed control at 62.5 g/ha [3] was 0% and the pest or weed control at 250 g/ha [3] was 0%. For the same compound, the pest or weed control at 15.625 g/ha [4] was 0%, the pest or weed control at 62.5 g/ha [4] was 0% and the pest or weed control at 250 g/ha [4] was 0%. The pest or weed control at 15.625 g/ha [5] was 0%, the pest or weed control at 62.5 g/ha [5] was 0% and the pest or weed control at 250 g/ha [5] was 0%. The pest or weed control at 15.625 g/ha [6] was 0%, the pest or weed control at 62.5 g/ha [6] was 0% and the pest or weed control at 250 g/ha [6] was 0%. The plant injury at 15.625 g/ha [7] was 0%, the plant injury at 62.5 g/ha [7] was 0% and the plant injury at 250 g/ha [7] was 0%. For the same compound, the pest or weed control at 15.625 g/ha [8] was 0%, the pest or weed control at 62.5 g/ha [8] was 0% and the pest or weed control at 250 g/ha [8] was 0%. It also gave a pest or weed control at 15.625 g/ha [9] of 0%, a pest or weed control at 62.5 g/ha [9] of 0% and a pest or weed control at 250 g/ha [9] of 0%. It also gave a pest or weed control at 15.625 g/ha [10] of 0%, a pest or weed control at 62.5 g/ha [10] of 0% and a pest or weed control at 250 g/ha [10] of 0%. For the same compound, the pest or weed control at 15.625 g/ha [11] was 0%, the pest or weed control at 62.5 g/ha [11] was 0% and the pest or weed control at 250 g/ha [11] was 0%. For the same compound, the pest or weed control at 15.625 g/ha [12] was 0%, the pest or weed control at 62.5 g/ha [12] was 0% and the pest or weed control at 250 g/ha [12] was 0%.

For Cc1cc(NC(=O)[C@@H]2C(=O)N(C)C[C@H]2c2ccc(C(F)(F)F)cc2)[nH]n1 (racemic) [Compound 1626], the plant injury at 15.625 g/ha [1] was 0%, the plant injury at 62.5 g/ha [1] was 0% and the plant injury at 250 g/ha [1] was 0%. It also gave a pest or weed control at 15.625 g/ha [2] of 0%, a pest or weed control at 62.5 g/ha [2] of 0% and a pest or weed control at 250 g/ha [2] of 0%. The pest or weed control at 15.625 g/ha [3] was 0%, the pest or weed control at 62.5 g/ha [3] was 0% and the pest or weed control at 250 g/ha [3] was 0%. It also gave a pest or weed control at 15.625 g/ha [4] of 0%, a pest or weed control at 62.5 g/ha [4] of 0% and a pest or weed control at 250 g/ha [4] of 0%. For the same compound, the pest or weed control at 15.625 g/ha [5] was 0%, the pest or weed control at 62.5 g/ha [5] was 0% and the pest or weed control at 250 g/ha [5] was 0%. For the same compound, the pest or weed control at 15.625 g/ha [6] was 0%, the pest or weed control at 62.5 g/ha [6] was 0% and the pest or weed control at 250 g/ha [6] was 0%. For the same compound, the plant injury at 15.625 g/ha [7] was 0%, the plant injury at 62.5 g/ha [7] was 0% and the plant injury at 250 g/ha [7] was 0%. The pest or weed control at 15.625 g/ha [8] was 0%, the pest or weed control at 62.5 g/ha [8] was 0% and the pest or weed control at 250 g/ha [8] was 0%. It also gave a pest or weed control at 15.625 g/ha [9] of 0%, a pest or weed control at 62.5 g/ha [9] of 0% and a pest or weed control at 250 g/ha [9] of 0%. The pest or weed control at 15.625 g/ha [10] was 0%, the pest or weed control at 62.5 g/ha [10] was 0% and the pest or weed control at 250 g/ha [10] was 0%. For the same compound, the pest or weed control at 15.625 g/ha [11] was 0%, the pest or weed control at 62.5 g/ha [11] was 0% and the pest or weed control at 250 g/ha [11] was 0%. It also gave a pest or weed control at 15.625 g/ha [12] of 0%, a pest or weed control at 62.5 g/ha [12] of 0% and a pest or weed control at 250 g/ha [12] of 0%.
